What follows are cell lines tested with CC[C@@H]1C(=O)N(C)c2cnc(Nc3ccc(C(=O)NC4CCN(C)CC4)cc3OC)nc2N1C1CCCC1 [BI-2536] (assay: relative viability (nuclei count vs DMSO), 5 days (fraction); higher = more cells survive). Settings: 0.01 µM.
Summary of the method: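 Five library-drug doses, separated by factors of √10, were pinned into 1536-well plates holding lung cancer cell lines after an overnight stay at 37 °C. Cells were fixed, permeabilised and Hoechst-stained in one step after 5 days without medium change, then imaged at 4×. Viability compares treated-well with vehicle-well nuclei, counted in MetaXpress, as a median across plates. Passing plates had control CV below 25% and at least one doubling.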

Cell Line	relative viability
Calu-6	1.02
HCC-366	1.04
NCI-H1666	0.945
NCI-H596	0.963
LK-2	0.832
NCI-H2087	1.11
SK-MES-1	1.07
H3255	0.86
COR-L23	1.09
COR-L 105	0.904
IA-LM	0.954
LOU-NH91	1.03
NCI-H2170	0.971
NCI-H2405	0.965
HOP-62	1
HCC-44	1.01

Cell Line	relative viability
A549	0.987
LU99A	0.939
BEN	0.948
HARA	1.01
HCC-78	0.972
NCI-H322M	0.99
LCLC-97TM1	0.969
NCI-H2009	0.959
A-427	0.996
NCI-H661	1.02
NCI-H1734	1.01
NCI-H460	1.05
NCI-H2347	0.942
SK-LU-1	1.03
NCI-H1395	0.844

Same assay, conditions: 0.03162 µM

Cell Line	relative viability
NCI-H2085	0.976
Calu-6	0.861
HCC-366	1.06
NCI-H1666	0.959
NCI-H596	1.11
LK-2	0.887
NCI-H2087	1.06
SK-MES-1	0.975
H3255	0.872
COR-L23	1.13
COR-L 105	0.909
IA-LM	0.912
LOU-NH91	0.924
NCI-H2170	0.896
NCI-H2405	0.918
HOP-62	1.07

Cell Line	relative viability
HCC-44	0.996
A549	0.936
LU99A	0.815
BEN	0.982
HARA	1.15
HCC-78	1.04
NCI-H322M	0.889
LCLC-97TM1	1.01
NCI-H2009	0.918
A-427	0.961
NCI-H661	0.95
NCI-H1734	0.725
NCI-H460	1.03
NCI-H2347	1.07
SK-LU-1	0.989
NCI-H1395	0.817

Same assay, conditions: 0.1 µM

Cell Line	relative viability
NCI-H2085	0.798
Calu-6	0.51
HCC-366	0.677
NCI-H1666	0.9
NCI-H596	0.747
LK-2	0.623
NCI-H2087	0.607
SK-MES-1	0.614
H3255	0.573
COR-L23	0.333
COR-L 105	0.665
IA-LM	0.649
LOU-NH91	0.824
NCI-H2170	0.273
NCI-H2405	0.465
HOP-62	0.775

Cell Line	relative viability
HCC-44	0.31
A549	0.628
LU99A	0.449
BEN	0.671
HARA	0.823
HCC-78	0.831
NCI-H322M	0.725
LCLC-97TM1	0.813
NCI-H2009	0.579
A-427	0.589
NCI-H661	0.503
NCI-H1734	0.234
NCI-H460	0.552
NCI-H2347	0.941
SK-LU-1	0.477
NCI-H1395	0.435

Same assay, conditions: 0.3162 µM

Cell Line	relative viability
NCI-H2085	0.222
Calu-6	0.117
HCC-366	0.0316
NCI-H1666	0.466
NCI-H596	0.402
LK-2	0.128
NCI-H2087	0.105
SK-MES-1	0.196
H3255	0.257
COR-L23	0.136
COR-L 105	0.252
IA-LM	0.0924
LOU-NH91	0.319
NCI-H2170	0.204
NCI-H2405	0.279
HOP-62	0.194

Cell Line	relative viability
HCC-44	0.155
A549	0.0475
LU99A	0.245
BEN	0.386
HARA	0.141
HCC-78	0.579
NCI-H322M	0.497
LCLC-97TM1	0.129
NCI-H2009	0.198
A-427	0.137
NCI-H661	0.327
NCI-H1734	0.199
NCI-H460	0.0431
NCI-H2347	0.483
SK-LU-1	0.248
NCI-H1395	0.337

Same assay, conditions: 1 µM

Cell Line	relative viability
NCI-H2085	0.333
Calu-6	0.111
HCC-366	0.0344
NCI-H1666	0.377
NCI-H596	0.286
LK-2	0.207
NCI-H2087	0.133
SK-MES-1	0.179
H3255	0.29
COR-L23	0.135
COR-L 105	0.343
IA-LM	0.061
LOU-NH91	0.271
NCI-H2170	0.204
NCI-H2405	0.406
HOP-62	0.155

Cell Line	relative viability
HCC-44	0.129
A549	0.0473
LU99A	0.214
BEN	0.355
HARA	0.159
HCC-78	0.247
NCI-H322M	0.298
LCLC-97TM1	0.0948
NCI-H2009	0.209
A-427	0.151
NCI-H661	0.334
NCI-H1734	0.211
NCI-H460	0.0258
NCI-H2347	0.43
SK-LU-1	0.225
NCI-H1395	0.34

Source: the supplement of paper PMC10307832
